17 compounds from patent publication US8729061B2, “Pyrrolidine derivatives” (Hoffmann-La Roche Inc., priority 2011, dated 2014) can be followed below.

What all share (type): biochemical
The target of one test is human Cathepsin S (Homo sapiens (Human), UniProt P25774). The experiment in a line: Cathepsin enzyme inhibition assay (fluorogenic peptide substrate), Cat S. The following applies: enzyme 1 nM, substrate Z-Val-Val-Arg-AMC 20 μM, pH 6.5. How it is done: (§1) Enzyme activity is measured by observing the increase in fluorescence intensity caused by cleavage of a peptide substrate containing a fluorophore whose emission is quenched in the intact peptide.
Chain of human Cathepsin S (P25774 115-331): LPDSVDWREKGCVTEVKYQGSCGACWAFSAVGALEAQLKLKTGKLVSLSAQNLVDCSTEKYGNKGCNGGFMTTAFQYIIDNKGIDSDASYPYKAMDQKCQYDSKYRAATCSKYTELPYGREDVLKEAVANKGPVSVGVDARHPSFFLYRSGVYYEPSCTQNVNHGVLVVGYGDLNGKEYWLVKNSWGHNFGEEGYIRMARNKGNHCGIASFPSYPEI
(§2) Assay buffer: 100 mM potassium phosphate pH 6.5, EDTA-Na 5 mM, Triton X-100 0.001%, DTT 5 mM.
(§3) Enzymes (all at 1 nM): human and mouse Cathepsin S, Cat K, Cat B, Cat L. Substrate (20 μM): Z-Val-Val-Arg-AMC, except for Cat K which uses Z-Leu-Arg-AMC (both from Bachem).
(§4) Excitation 360 nm, Emission 465 nm.
(§5) Enzyme is added to the substance dilutions in 96-well microtitre plates and the reaction is started with substrate. […] IC50 are calculated by standard methods. Inhibition of human Cat S, mouse Cat S, human Cat K, mouse Cat K, human Cat B, mouse Cat B, human Cat L and mouse Cat L have been measured separately.

For another test, the target named is human Cat L (Homo sapiens (Human), UniProt P07711). The experiment in a line: Cathepsin enzyme inhibition assay (fluorogenic peptide substrate), Cat L. Conditions: enzyme 1 nM, substrate Z-Val-Val-Arg-AMC 20 μM, pH 6.5. How it is done: as §1, §2, §3, §4, §5
Chain of human Cat L (P07711 114-333): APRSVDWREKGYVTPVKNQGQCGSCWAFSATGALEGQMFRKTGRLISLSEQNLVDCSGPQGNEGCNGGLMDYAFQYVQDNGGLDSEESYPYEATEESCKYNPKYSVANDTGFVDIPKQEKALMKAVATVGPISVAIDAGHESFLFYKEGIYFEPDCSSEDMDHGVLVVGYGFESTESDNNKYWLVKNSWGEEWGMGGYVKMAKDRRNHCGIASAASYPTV
A further test has as its target human Cat K (Homo sapiens (Human), UniProt P43235). In words: Cathepsin enzyme inhibition assay (fluorogenic peptide substrate), Cat K. Conditions: enzyme 1 nM, substrate Z-Leu-Arg-AMC 20 μM, pH 6.5. How it is done: as §1, §2, §3, §4, §5
The next test deals with human Cat B (Homo sapiens (Human), UniProt P07858). The experiment in a line: Cathepsin enzyme inhibition assay (fluorogenic peptide substrate), Cat B. Conditions: enzyme 1 nM, substrate Z-Val-Val-Arg-AMC 20 μM, pH 6.5. As for the experimental part:
as §1, §2, §3, §4, §5

Chain of human Cat K (P43235 115-329): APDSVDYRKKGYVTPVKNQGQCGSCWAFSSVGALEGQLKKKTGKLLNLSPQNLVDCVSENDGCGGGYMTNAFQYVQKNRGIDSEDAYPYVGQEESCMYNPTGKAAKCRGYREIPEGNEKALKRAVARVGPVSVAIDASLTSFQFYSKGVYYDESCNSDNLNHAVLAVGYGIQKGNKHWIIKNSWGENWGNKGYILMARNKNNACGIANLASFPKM

One may read the IC50 as the concentration that inhibits the measured activity by half. Take `CC[C@H](NC(=O)[C@@H]1C[C@@H](S(=O)(=O)c2ccc(C)cc2C)CN1C(=O)OC(C)(C)C)C(=O)C(=O)NC1CC1` [Example 1, (2S,4R)-tert-butyl 2-((S)-1-(cyclopropylamino)-1,2-dioxopentan-3-ylcarbamoyl)-4-(2,4-dimethylphenylsulfonyl)pyrrolidine-1-carboxylate]: the 50% inhibitory concentration (IC50) worked out at 0.829 nM against human Cathepsin S, 1910 nM at human Cat L, 7900 nM against human Cat K and 11100 nM at human Cat B.
On to `CC[C@H](NC(=O)[C@@H]1C[C@@H](S(=O)(=O)c2ccc(Cl)cc2C)CN1C(=O)OC(C)(C)C)C(=O)C(=O)NC1CC1` [Example 2, (2S,4R)-tert-butyl 4-(4-chloro-2-methylphenylsulfonyl)-2-((S)-1-(cyclopropylamino)-1,2-dioxopentan-3-ylcarbamoyl)pyrrolidine-1-carboxylate], for which the figures for the IC50 at human Cat L, at human Cat K and against human Cat B were 2590 nM, 9430 nM and 22600 nM, respectively.
As for `CC[C@H](NC(=O)[C@@H]1C[C@@H](S(=O)(=O)c2ccccc2C(F)(F)F)CN1c1ccccc1[N+](=O)[O-])C(=O)C(=O)NC1CC1` [Example 3, (2S,4R)—N—((S)-1-(cyclopropylamino)-1,2-dioxopentan-3-yl)-1-(2-nitrophenyl)-4-(2-(trifluoromethyl)phenylsulfonyl)pyrrolidine-2-carboxamide], the 50% inhibitory concentration (IC50) on human Cathepsin S was 1 nM; against human Cat L, 1550 nM; at human Cat K, 7430 nM; on human Cat B it was 3180 nM.
As to `CC[C@H](NC(=O)[C@@H]1C[C@@H](S(=O)(=O)c2ccc(F)cc2C(F)(F)F)CN1c1cc(C)nn1C1CCC1)C(=O)C(=O)NC1CC1` [Example 4, (2S,4R)-1-(1-cyclobutyl-3-methyl-1H-pyrazol-5-yl)-N—((S)-1-(cyclopropylamino)-1,2-dioxopentan-3-yl)-4-(4-fluoro-2-(trifluoromethyl)phenylsulfonyl)pyrrolidine-2-carboxamide], the IC50 is 2.98 nM against human Cathepsin S, 551 nM on human Cat L, 5890 nM against human Cat K and 2920 nM against human Cat B.
Regarding `CC[C@H](NC(=O)[C@@H]1C[C@@H](S(=O)(=O)c2ccccc2C(F)(F)F)CN1c1ccccc1[N+](=O)[O-])C(=O)c1nc2ccccc2o1` [Example 5, (2S,4R)-1-(2-Nitro-phenyl)-4-(2-trifluoromethyl-benzenesulfonyl)-pyrrolidine-2-carboxylic acid [(S)-1-(benzooxazole-2-carbonyl)-propyl]-amide], the IC50 was determined as 1.83 nM on human Cathepsin S and 106000 nM on human Cat B.
Turning to `CC[C@H](NC(=O)[C@@H]1C[C@@H](S(=O)(=O)c2ccc(Br)cc2C(F)(F)F)CN1c1cc(C)nn1C1CCC1)C(=O)C(=O)NC1CC1` [Example 6, (2S,4R)-4-(4-bromo-2-(trifluoromethyl)phenylsulfonyl)-1-(1-cyclobutyl-3-methyl-1H-pyrazol-5-yl)-N—((S)-1-(cyclopropylamino)-1,2-dioxopentan-3-yl)pyrrolidine-2-carboxamide], the IC50 against human Cathepsin S was 0.976 nM; on human Cat L, 202 nM; on human Cat K, 168 nM; against human Cat B, 1300 nM.
For `CC[C@H](NC(=O)[C@@H]1C[C@@H](S(=O)(=O)c2ccccc2C(F)(F)F)CN1C(=O)C1(C(F)(F)F)CC1)C(=O)C(=O)NC1CC1` [Example 7, (2S,4R)—N—((S)-1-(cyclopropylamino)-1,2-dioxopentan-3-yl)-1-(1-(trifluoromethyl)cyclopropanecarbonyl)-4-(2-(trifluoromethyl)phenylsulfonyl)pyrrolidine-2-carboxamide] the same measures were 3.78 nM, 3040 nM, 11300 nM and 1850 nM.
For `CC[C@H](NC(=O)[C@@H]1C[C@@H](S(=O)(=O)c2ccccc2Cl)CN1C(=O)C1(c2ccc(Cl)cc2)CC1)C(=O)C(=O)NC1CC1` [Example 8, (2S,4R)-1-(1-(4-chlorophenyl)cyclopropanecarbonyl)-4-(2-chlorophenylsulfonyl)-N—((S)-1-(cyclopropylamino)-1,2-dioxopentan-3-yl)pyrrolidine-2-carboxamide] the same measures were 0.296 nM, 4.3 nM, 27.6 nM and 62.7 nM.
On to `CCC[C@H](NC(=O)[C@@H]1C[C@@H](S(=O)(=O)c2ccccc2Cl)CN1C(=O)C1(c2ccc(Cl)cc2)CC1)C(=O)C(=O)NC1CC1` [Example 9, (2S,4R)-1-(1-(4-chlorophenyl)cyclopropanecarbonyl)-4-(2-chlorophenylsulfonyl)-N—((S)-1-(cyclopropylamino)-1,2-dioxohexan-3-yl)pyrrolidine-2-carboxamide], for which the half-inhibitory concentration (IC50) on human Cathepsin S amounted to 0.367 nM; on human Cat L it was 4.7 nM; against human Cat K, 19.6 nM; against human Cat B it was 43.3 nM.
As to `CC[C@H](NC(=O)[C@@H]1C[C@@H](S(=O)(=O)c2ccc(OCC(F)(F)F)cc2Cl)CN1C(=O)C1(c2ncc(Cl)cc2F)CC1)C(=O)C(=O)NC1CC1` [Example 10, (2S,4R)-1-(1-(5-chloro-3-fluoropyridin-2-yl)cyclopropanecarbonyl)-4-(2-chloro-4-(2,2,2-trifluoroethoxy)phenylsulfonyl)-N—((S)-1-(cyclopropylamino)-1,2-dioxopentan-3-yl)pyrrolidine-2-carboxamide], the concentration for half-maximal inhibition (IC50) was 2.88 nM on human Cathepsin S, 55.4 nM against human Cat L, 118 nM against human Cat K and 829 nM against human Cat B.
For `CC[C@H](NC(=O)[C@@H]1C[C@@H](S(=O)(=O)c2ccc(OCC(F)(F)F)cc2C(F)(F)F)CN1C(=O)C1(c2ccc(Cl)cc2)CC1)C(=O)C(=O)NC1CC1` [Example 11], in that order: 1.38 nM, 63.2 nM, 390 nM and 291 nM.
Regarding `CC[C@H](NC(=O)[C@@H]1C[C@@H](S(=O)(=O)c2ccccc2Cl)CN1C(=O)C1(c2ccc(I)cc2)CC1)C(=O)C(=O)NC1CC1` [Example 17, (2S,4R)-4-(2-chlorophenylsulfonyl)-N—((S)-1-(cyclopropylamino)-1,2-dioxopentan-3-yl)-1-(1-(4-iodophenyl)cyclopropanecarbonyl)pyrrolidine-2-carboxamide], the IC50 on human Cathepsin S worked out at 0.652 nM; against human Cat L, 10.1 nM; against human Cat K it was 30.1 nM.
Turning to `CC(C)[C@H](NC(=O)[C@@H]1C[C@@H](S(=O)(=O)c2ccccc2Cl)CN1C(=O)C1(c2ccc(Cl)cc2)CC1)C(=O)C(=O)NC1CC1` [Example 28, (2S,4R)-1-(1-(4-chlorophenyl)cyclopropanecarbonyl)-4-(2-chlorophenylsulfonyl)-N—((S)-1-(cyclopropylamino)-4-methyl-1,2-dioxopentan-3-yl)pyrrolidine-2-carboxamide], the IC50 at human Cathepsin S was 0.328 nM; on human Cat L, 5.2 nM; at human Cat B it was 97.3 nM.
As to `CCCCNC(=O)C(=O)[C@H](CC)NC(=O)[C@@H]1C[C@@H](S(=O)(=O)c2ccccc2Cl)CN1C(=O)C1(c2ccc(Cl)cc2)CC1` [Example 31, (2S,4R)—N—((S)-1-(butylamino)-1,2-dioxopentan-3-yl)-1-(1-(4-chlorophenyl)cyclopropanecarbonyl)-4-(2-chlorophenylsulfonyl)pyrrolidine-2-carboxamide], the IC50 against human Cat L was found to be 11.2 nM; on human Cat K, 35.6 nM; on human Cat B it was 47.8 nM.
Take `CCC[C@H](NC(=O)[C@@H]1C[C@@H](S(=O)(=O)c2ccc(Cl)cc2Cl)CN1C(=O)C1(c2ccc(Cl)cc2)CC1)C(=O)C(=O)NC1CC1` [Example 42, (2S,4R)-1-(1-(4-chlorophenyl)cyclopropanecarbonyl)-N—((S)-1-(cyclopropylamino)-1,2-dioxohexan-3-yl)-4-(2,4-dichlorophenylsulfonyl)pyrrolidine-2-carboxamide]: the values for the IC50 against human Cathepsin S, at human Cat K and at human Cat B were 0.634 nM, 28.7 nM and 115 nM, respectively.
As to `CCNC(=O)C(=O)[C@H](CC)NC(=O)[C@@H]1C[C@@H](S(=O)(=O)c2ccccc2Cl)CN1C(=O)C1(c2ccc(Cl)cc2)CC1` [Example 43, (2S,4R)-1-(1-(4-chlorophenyl)cyclopropanecarbonyl)-4-(2-chlorophenylsulfonyl)-N—((S)-1-(ethylamino)-1,2-dioxopentan-3-yl)pyrrolidine-2-carboxamide], the IC50 on human Cathepsin S is 0.508 nM; against human Cat L, 13.6 nM; against human Cat B it was 112 nM.
With `CC(C)[C@H](NC(=O)[C@@H]1C[C@@H](S(=O)(=O)c2ccccc2Cl)CN1C(=O)C1(c2ncc(Cl)cc2F)CC1)C(=O)C(=O)NC1CC1` [Example 58, (2S,4R)-1-(1-(5-chloro-3-fluoropyridin-2-yl)cyclopropanecarbonyl)-4-(2-chlorophenylsulfonyl)-N—((S)-1-(cyclopropylamino)-4-methyl-1,2-dioxopentan-3-yl)pyrrolidine-2-carboxamide], the IC50 against human Cat L was determined as 0.9 nM; on human Cat K it was 49.1 nM; at human Cat B, 323 nM.
